Legend:
Assay type in all cases: in vivo, human
nasal scraping cells = test: Transcriptome sequencing (RNA-seq) of nasal scraping cells
Protocol: The scraped mucosal epithelial cells are placed in a TRIzol™ reagent (Invitrogen™) and stored in liquid nitrogen for processing. Library preparation and high-throughput sequencing, data analysis, ribonucleic acid (RNA) sequence and deoxyribonucleic acid (DNA) virus sequence enrichment analysis are performed by Seqhealth Technology Co., Ltd. (China; wuhan). Sample quality analysis is performed by Nanodrop™ OneC spectrophotometer to detect expression at A260 and A280. Qualified samples are finally quantified by QubitR®3.0 fluorometer and Qubit™ RNA broad-range (BR) Assay kits. The original data is first filtered by Trimomatic (Version 0.36). Counting by FeatureCounts, and then calculate reads per kilobase of exon model per million mapped reads (RPKM). Differentially expressed genes between groups are identified using an edgeR package (Version 3.12.1). In analysis, P value<0.05 and fold change (FC) higher than 2 are considered to be significant differences in gene expression between groups.

[1] = tested on: IL-2, IL-4, IL-5, IL-6, IL-13, IL-17A, IL-28A, IL-33, IFN-α, IFN-β, IFN-γ, IFN-λ, Eotaxin in the nasal secretions; test: Cytokine levels in the nasal secretions measured by Luminex; details: for IL-2 in nasal secretions, after treatment: mean ± SD
Protocol: (§1) Two pieces of 1.0 centimeter (cm)×1.5 cm sterile medical sponge are gently placed into the patient's bilateral nasal cavity for 1-5 minutes (min). After the sponge adsorbs enough the nasal secretions, the sponge is gently removed and put into a 2 milliliters (mL) syringe. The nasal secretions are squeezed out and collected in a 1.5 mL centrifuge tube, centrifuged at 3000 revolutions per minute (rpm) for 5 min, and the supernatant is taken and placed in a refrigerator at −80° C. for testing. Eosinophil cationic protein (ECP) in the nasal secretions is detected by enzyme-linked immunosorbent assay (ELISA). The ECP-ELISA kit is from Zhongmin Taike Biotechnology Co., Ltd. Cytokine levels of interleukin (IL)-2, IL-4, IL-5, IL-6, IL-13, IL-17A, IL-28A, IL-33, interferon (IFN)-α, IFN-β, IFN-γ, IFN-λ, and Eotaxin in the nasal secretions are measured by using Luminex (R&D; LXSAHM-13).

[2] = tested on: eosinophils in nasal secretions; test: Nasal secretion smears, percentage of eosinophils in inflammatory cells
Excerpt: The patients blow their nose (both sides), or gently rotate a glass rod at a front end of the patients' nasal vestibule to obtain the nasal secretions, avoiding rubbing the mucosal surface as much as possible. The obtained nasal secretions are evenly and lightly coated on slides, and a coverage area of the nasal secretion smear is required to exceed ⅔ of the slides. After natural air drying, the slides are dyed with Wright-Giemsa stain (Baso Diagnostics Inc. Zhuhai; China). After dyeing, cells are counted under an optical microscope. A percentage of eosinophils in inflammatory cells under 10×100 times microscope is observed, and an average value of 5 visual fields is taken as a result.

[3] = tested on: Eosinophil cationic protein (ECP); test: ECP in the nasal secretions by ELISA
Protocol: as §1

[4] = GCV effective group n=6, before vs after, P<0.05 and FC>2
[5] = GCV effective group n=6, nasal scraping cells
[6] = GCV effective group and GCV ineffective group

Compound: Nc1nc(O)c2ncn(COC(CO)CO)c2n1 [GCV, Ganciclovir]
- genes down-regulated after GCV treatment (nasal scraping cells; [4]): 160 genes
- genes up-regulated after GCV treatment (nasal scraping cells; [4]): 25 genes
- CXCL9 expression after GCV treatment (nasal scraping cells; [5]): up-regulated
- CXCL10 expression after GCV treatment (nasal scraping cells; [5]): up-regulated
- MUC5B expression after GCV treatment (nasal scraping cells; [5]): down-regulated
- all cytokines and inflammatory factors in nasal secretions, change after GCV treatment [1, 6]: do not change
- IFN-β in nasal secretions, after treatment ([1]; GCV effective group, before 26.49 ± 26.34): 38.86 ± 54.29 pg/mL
- IFN-α in nasal secretions, after treatment ([1]; GCV effective group, before 31.09 ± 28.65): 32.77 ± 23.83 pg/mL
- IL-6 in nasal secretions, after treatment ([1]; GCV effective group, before 39.10 ± 34.59): 30.44 ± 27.04 pg/mL
- IL-17A in nasal secretions, after treatment ([1]; GCV effective group, before 55.38 ± 27.4): 58.92 ± 43.93 pg/mL
- IL-4 in nasal secretions, after treatment ([1]; GCV effective group, before 109.67 ± 23.95): 105.32 ± 25.44 pg/mL
- IFN-γ in nasal secretions, after treatment ([1]; GCV effective group, before 181.83 ± 266.06): 120.24 ± 116.93 pg/mL
- IL-5 in nasal secretions, after treatment ([1]; GCV effective group, before 197.49 ± 388.67): 134.24 ± 172.57 pg/mL
- Eotaxin in nasal secretions, after treatment ([1]; GCV effective group, before 206.5 ± 212.85): 153.51 ± 101.87 pg/mL
- IL-33 in nasal secretions, after treatment ([1]; GCV effective group, before 277.39 ± 303.34): 293.62 ± 396.68 pg/mL
- IFN-λ in nasal secretions, after treatment ([1]; GCV effective group, before 313.99 ± 194.7): 331.23 ± 237.77 pg/mL
- IL-13 in nasal secretions, after treatment ([1]; GCV effective group, before 455.81 ± 190.16): 397.80 ± 116.61 pg/mL
- IL-28A in nasal secretions, after treatment ([1]; GCV effective group, before 718.08 ± 263.12): 740.68 ± 214.99 pg/mL
- IL-2 in nasal secretions, after treatment ([1]; GCV effective group, before 148.69 ± 43.59): 132.85 ± 40.51 pg/mL
- IFN-β in nasal secretions, after treatment ([1]; GCV ineffective group, before 19.58 ± 12.05): 17.86 ± 8.57 pg/mL
- Eotaxin in nasal secretions, after treatment ([1]; GCV ineffective group, before 36.79 ± 25.41): 50.35 ± 47.92 pg/mL
- IL-6 in nasal secretions, after treatment ([1]; GCV ineffective group, before 49.62 ± 10.4): 65.53 ± 44.86 pg/mL
- IL-17A in nasal secretions, after treatment ([1]; GCV ineffective group, before 59.88 ± 40.6): 48.13 ± 18.73 pg/mL
- IFN-γ in nasal secretions, after treatment ([1]; GCV ineffective group, before 106.77 ± 51.92): 80.25 ± 44.49 pg/mL
- IFN-α in nasal secretions, after treatment ([1]; GCV ineffective group, before 129.83 ± 170.32): 57.51 ± 49.01 pg/mL
- IL-4 in nasal secretions, after treatment ([1]; GCV ineffective group, before 151.81 ± 71.34): 116.44 ± 53.74 pg/mL
- IL-5 in nasal secretions, after treatment ([1]; GCV ineffective group, before 218.52 ± 189.78): 70.26 ± 57.39 pg/mL
- IFN-λ in nasal secretions, after treatment ([1]; GCV ineffective group, before 371.83 ± 248.73): 363.86 ± 203.72 pg/mL
- IL-13 in nasal secretions, after treatment ([1]; GCV ineffective group, before 382.32 ± 104.87): 282.34 ± 55.29 pg/mL
- IL-28A in nasal secretions, after treatment ([1]; GCV ineffective group, before 392.09 ± 218.69): 447.41 ± 202.35 pg/mL
- IL-33 in nasal secretions, after treatment ([1]; GCV ineffective group, before 583.28 ± 515.20): 436.61 ± 500.63 pg/mL
- IL-2 in nasal secretions, after treatment ([1]; GCV ineffective group, before 139.75 ± 59.26): 125.13 ± 58.88 pg/mL
- percentage of eosinophils in nasal secretions, change after GCV treatment [2, 6]: no significant change
- Nasal secretion eosinophils, after treatment ([2]; GCV effective group, before 90.54 ± 6.24): 93.23 ± 11.99%
- Nasal secretion eosinophils, after treatment ([2]; GCV ineffective group, before 56 ± 46.30): 54 ± 44.54%
- ECP in nasal secretions, change after GCV treatment [3, 6]: no significant change
- ECP in nasal secretions, after treatment ([3]; GCV effective group, before 42.38 ± 41.04): 20.18 ± 18.42 µg/mL
- ECP in nasal secretions, after treatment ([3]; GCV ineffective group, before 82 ± 18.01): 45.993 ± 37.12 µg/mL

— US20240277717A1, “APPLICATION OF GANCICLOVIR IN PREPAPRATION OF MEDICINE FOR TREATING ALLERGIC RHINITIS” (Union Hospital, Tongji Medical College, Huazhong University …, priority 2023, published 2024)
